This note sets out measurements from ChEMBL document CHEMBL3507680, “University of Dundee, Gates Library screen for HepG2 cell viability”.

Structures are written as SMILES.

The data set can be described thus: Human HepG2 cell viability assay in 384 well format. Type of data set: toxicity, cell-based. Also on record: dose 125 nL, time 70.5 hour; cytotoxicity at 70.5 h: concentration not given beside the values. Particulars: HepG2 cells, read-out: Inhibition.
On to `Cc1nccn1-c1cncc(C2CCCN2Cc2ccccc2)n1` (stereo unspecified), for which the cytotoxicity at 70.5 h was found to be 14.2%.

For the compound `O=C(c1ccccc1Cl)N1CC[C@H](O)[C@@H](N2CCOCC2)CC1`, the cytotoxicity at 70.5 h is -4.63%.

Regarding `Cc1ncc(CN2CC[C@@](C)(O)[C@H](Oc3cccc(F)c3)C2)cn1`, the cytotoxicity at 70.5 h is 14.8%.

As for `O=C(c1ccc2c(c1)CCC2)N1CC[C@H](O)[C@]2(CCCO2)C1`, the cytotoxicity at 70.5 h was -0.381%.

In the case of `C[C@]1(O)CCN(Cc2nccs2)C[C@@H]1Oc1cccc(F)c1`, the cytotoxicity at 70.5 h is -3.49%.

In the case of `CO[C@H]1CN(C(=O)c2ccc3oc(C)cc3c2)C[C@@]12CCCO2`, the cytotoxicity at 70.5 h was -3.4%.

Take `C[C@@]1(O)CCN(Cc2cc[nH]n2)C[C@H]1Oc1cccc(F)c1`: the cytotoxicity at 70.5 h was -2.59%.

For the compound `C[C@]1(O)CN(Cc2ncc[nH]2)CC[C@@H]1Oc1cccc(F)c1`, the cytotoxicity at 70.5 h was -1.65%.

`C[C@]1(O)CN(Cc2cscn2)CC[C@@H]1Oc1cccc(F)c1`: the cytotoxicity at 70.5 h is -3.07%.

For the compound `Cn1ccnc1CN1CCC(Cc2ccccn2)CC1`, the cytotoxicity at 70.5 h came to 17.2%.

As to `Nc1ncnc2c1ncn2[C@H]1CCN(Cc2ccsc2)CC[C@@H]1O`, the cytotoxicity at 70.5 h was -6.05%.

Regarding `COCC(=O)N1CCCC1c1nccnc1Nc1nc(C)cs1` (stereo unspecified), the cytotoxicity at 70.5 h was -7.14%.

Take `O=C(CCn1ncc2ccccc21)N1CCCC(Cc2cccnc2)C1` (stereo unspecified): the cytotoxicity at 70.5 h was -5.11%.

Take `CC(C)(N)C(=O)N1CCC(c2nccnc2Oc2cccc(F)c2)CC1`: the cytotoxicity at 70.5 h was -10.4%.

Consider `CC(C)(N)C(=O)N1CCC(c2nccnc2Oc2ccccc2F)CC1`, for which the cytotoxicity at 70.5 h is 7.72%.

For the compound `Cc1cccc(Oc2nccnc2C2CCN(C(=O)C(C)(C)N)CC2)c1`, the cytotoxicity at 70.5 h was -4.07%.

Consider `Cc1noc(C)c1C(=O)N1CCC(c2[nH]ncc2S(C)(=O)=O)C1` (stereo unspecified), for which the cytotoxicity at 70.5 h is -1.52%.

As for `CCn1cc(C(=O)N2CCCC(c3nccs3)C2)cn1` (stereo unspecified), the cytotoxicity at 70.5 h is -2.34%.

In the case of `CNc1cncc(C2CCCN2C(=O)c2ccc3c(c2)OCCO3)n1` (stereo unspecified), the cytotoxicity at 70.5 h was 20.5%.

With `COCCC(=O)N1CCCC1c1nccnc1Nc1ncccn1` (stereo unspecified), the cytotoxicity at 70.5 h stood at 16.8%.

Turning to `CCc1cc(C(=O)N2CCCC(Cc3ccc(NC)nn3)C2)on1` (stereo unspecified), the cytotoxicity at 70.5 h came to 50.7%.

For `CCCC1c2cccn2CCN1C(=O)c1cc(CC)no1` (stereo unspecified), the cytotoxicity at 70.5 h is -2.22%.

As for `Cc1csc2c(=O)n3c(nc12)CCN(C(=O)c1ccnn1C)CC3`, the cytotoxicity at 70.5 h was -6.6%.

As for `Cc1csc2c(=O)n3c(nc12)CCN(C(=O)c1ccccn1)CC3`, the cytotoxicity at 70.5 h is -0.0193%.

As to `c1coc(-c2[nH]c3ncccc3c2CN2CCCOCC2)c1`, the cytotoxicity at 70.5 h is -4.25%.

Regarding `CN1CCN(Cc2c(-c3ccco3)[nH]c3ncccc23)CC1`, the cytotoxicity at 70.5 h was -6.17%.

Take `COc1cc2nc3n(c(=O)c2cc1OC)CCN(C(=O)C1CCC1)CC3`: the cytotoxicity at 70.5 h was -4.59%.

`CCCn1cc(C(=O)N2CCOC(c3nc(-c4cccs4)no3)C2)cn1` (stereo unspecified): the cytotoxicity at 70.5 h was -4.18%.

Regarding `O=C(N[C@@H]1CN(Cc2ccc3[nH]ccc3c2)C[C@H]1O)c1cscn1`, the cytotoxicity at 70.5 h was determined as 19.9%.

For the compound `O=C(N[C@@H]1CN(Cc2ccc(F)cc2)C[C@H]1O)c1cscn1`, the cytotoxicity at 70.5 h was -1.52%.

Take `Cc1cccnc1CN1CCCCC1c1ccn2ccnc2n1` (stereo unspecified): the cytotoxicity at 70.5 h is -4.81%.

With `CNc1ncccc1CN1CCCCC1c1cc(C)n2ccnc2n1` (stereo unspecified), the cytotoxicity at 70.5 h was -5.95%.

For the compound `Cc1cc2cc(C(=O)N[C@@H]3CC[C@@H](N4CCCC4)[C@@H]3O)ccc2o1`, the cytotoxicity at 70.5 h is -5.68%.

Regarding `CCc1nccn1-c1cncc(C2CCCN2Cc2ccccc2)n1` (stereo unspecified), the cytotoxicity at 70.5 h is -5.36%.

Take `CNc1nc(C2CCCCN2C(=O)COC)nc2c1CN(C)CC2` (stereo unspecified): the cytotoxicity at 70.5 h is -9.52%.

Take `CNc1nc(C2CCCCN2C(=O)C(C)(C)OC)nc2c1CN(C)CC2` (stereo unspecified): the cytotoxicity at 70.5 h was -7.36%.

Consider `Cn1cc(C(=O)N2CCCC(Cc3cccc4ncccc34)C2)cn1` (stereo unspecified), for which the cytotoxicity at 70.5 h is -3.73%.

In the case of `Cc1cncc(C2CCCN(CC3CCC3)C2)n1` (stereo unspecified), the cytotoxicity at 70.5 h was -4.65%.

For `CCc1nccn1-c1cncc(C2CCCN2CC(=O)N2CCCC2)n1` (stereo unspecified), the cytotoxicity at 70.5 h is -3.79%.

For the compound `CCCn1cc(CN2CCC(c3[nH]ncc3S(C)(=O)=O)C2)cn1` (stereo unspecified), the cytotoxicity at 70.5 h was -7.48%.

In the case of `Cc1ccc(-c2cc(CS(=O)(=O)NC3CCCNC3=O)on2)cc1` (stereo unspecified), the cytotoxicity at 70.5 h turned out to be 0.495%.

Turning to `Cc1cc(CC(C)NC(=O)c2n[nH]c3c2CCC3)n[nH]1` (stereo unspecified), the cytotoxicity at 70.5 h was 3.59%.

Regarding `Cc1cc(NC(=O)NCCO)nn1-c1ccc(Cl)cc1Cl`, the cytotoxicity at 70.5 h was determined as 0.498%.

`Cc1cc(NC(=O)CO)nn1-c1ccc(Cl)cc1Cl`: the cytotoxicity at 70.5 h stood at 4.81%.

Turning to `COCCN(CCOC)C(=O)c1cnn(C)c1-n1c(C)ccc1C`, the cytotoxicity at 70.5 h worked out at 1.05%.

On to `CCCN(CCC)C(=O)c1cnn(C)c1C`, for which the cytotoxicity at 70.5 h came out at 9.54%.

On to `Cc1cc(C)cc(OCCN(C)C2CCOC2=O)c1` (stereo unspecified), for which the cytotoxicity at 70.5 h amounted to 1.42%.

For `CN(CCOc1ccccc1F)C1CCOC1=O` (stereo unspecified), the cytotoxicity at 70.5 h was -1.46%.

Take `COc1ccccc1NC(=O)CCNC(=O)c1ccoc1`: the cytotoxicity at 70.5 h came to 0.887%.

Consider `CS(=O)(=O)c1ccc(Cl)c(C(=O)NCCC2=CCCCC2)c1`, for which the cytotoxicity at 70.5 h is 32.9%.

For the compound `CCOC(=O)c1ccc(S(=O)(=O)NCC(CC)N2CCCC2)cc1` (stereo unspecified), the cytotoxicity at 70.5 h was -5.87%.

As to `COCc1ccccc1NC(=O)c1ccoc1`, the cytotoxicity at 70.5 h is -15%.

Turning to `CC(C)CN(CC(F)(F)F)S(=O)(=O)c1cc(C(N)=O)n(C)c1`, the cytotoxicity at 70.5 h was 1.58%.

On to `CC(C)C1CCCN1C(=O)Nc1ccc(=O)n(C)c1` (stereo unspecified), for which the cytotoxicity at 70.5 h is 15%.

Turning to `CC(=O)NCCNC(=O)NCc1ccc(-n2ccc(C(F)(F)F)n2)cc1`, the cytotoxicity at 70.5 h was -6.79%.

For `COc1ccc(NCCC(=O)NCc2cccnc2N(C)C)cc1`, the cytotoxicity at 70.5 h was -8.23%.

As to `Cn1cc(NC(=O)N2CCCC2c2ccccn2)ccc1=O` (stereo unspecified), the cytotoxicity at 70.5 h was -5.4%.

As for `c1ccc2c(NC3CCc4ncnn4C3)ncnc2c1` (stereo unspecified), the cytotoxicity at 70.5 h is -4.29%.

Turning to `CCNC(=O)NCc1ccc(-n2ccc(C(F)(F)F)n2)cc1`, the cytotoxicity at 70.5 h is -3.86%.

Consider `Cc1nc2n(n1)CC(Nc1nc(C(F)(F)F)nc3ccccc13)CC2` (stereo unspecified), for which the cytotoxicity at 70.5 h is -1.15%.

On to `Cc1cnn(C2CN(Cc3nc4cc(Cl)ccc4n3C)C2)c1`, for which the cytotoxicity at 70.5 h was found to be 7.22%.

In the case of `COC(=O)c1occc1Cn1cc(Br)cn1`, the cytotoxicity at 70.5 h is -2.08%.

On to `Cn1cc(CCCN2CCCC(c3cc(C(F)(F)F)[nH]n3)C2)cn1` (stereo unspecified), for which the cytotoxicity at 70.5 h was 6.94%.

Regarding `Cc1nc(S(=O)(=O)N2CCCCc3ccccc32)cn1C`, the cytotoxicity at 70.5 h was 9.73%.

For `OCCC1CCN(c2ccnc3ccsc23)C1` (stereo unspecified), the cytotoxicity at 70.5 h is -3.95%.

As to `COCCNS(=O)(=O)c1c(C)sc2ccccc12`, the cytotoxicity at 70.5 h was -4.03%.

Take `CCOC(=O)C1(NCC(=O)Nc2cc(C)ccc2OC)CCCC1`: the cytotoxicity at 70.5 h is 21.1%.

Take `Cn1cc(CC(=O)N2CCCC(c3ccn[nH]3)C2)cn1` (stereo unspecified): the cytotoxicity at 70.5 h was -1.63%.

`COCCN(Cc1ccccn1)C(=O)Nc1cccnc1-n1cccn1`: the cytotoxicity at 70.5 h worked out at 18.4%.

Consider `CCN(Cc1ccco1)C(=O)NCC(C)N1CCc2sccc2C1` (stereo unspecified), for which the cytotoxicity at 70.5 h is 13.6%.

As to `Cc1ccc(-c2noc(CCC(=O)NC(C)Cn3cccn3)n2)cc1` (stereo unspecified), the cytotoxicity at 70.5 h is -7.96%.

In the case of `Cc1cccc2c1OCCC2NCc1c(C(C)C)nn(C)c1N(C)C` (stereo unspecified), the cytotoxicity at 70.5 h is -10.6%.

Take `CCS(=O)(=O)CC(=O)NC(C)c1ccc(OCCC(C)C)cc1` (stereo unspecified): the cytotoxicity at 70.5 h was -1.31%.

Regarding `O=C(CCn1cnc2cc(F)c(F)cc21)N1CCN2CCCCC2C1` (stereo unspecified), the cytotoxicity at 70.5 h is -1.04%.

For `CCCNc1nnc(S(=O)(=O)CCOCC)s1`, the cytotoxicity at 70.5 h is -0.768%.

For `CC(NC(=O)CSCC(N)=O)c1ccc(Oc2ccccc2)cc1` (stereo unspecified), the cytotoxicity at 70.5 h was -8.85%.

As for `O=C(NCCO)Nc1ccc(Cl)cc1-n1cccc1`, the cytotoxicity at 70.5 h was 0.77%.

Turning to `CN(CC(=O)NC(N)=O)CC1(c2ccc(Br)cc2)CC1`, the cytotoxicity at 70.5 h is -1.35%.

With `Cc1nc(COc2ccc(OC3CCCCNC3=O)cc2)oc1C` (stereo unspecified), the cytotoxicity at 70.5 h came to 1.82%.

As for `Cc1cc(COc2ccc(OC3CCCCNC3=O)cc2)on1` (stereo unspecified), the cytotoxicity at 70.5 h is -3.96%.

In the case of `CN(CC(N)=O)CC1(c2ccc(Br)cc2)CC1`, the cytotoxicity at 70.5 h was -5.53%.

For `CN1CCC(NC(=O)Nc2cnn(-c3ccccc3Cl)c2)C1=O` (stereo unspecified), the cytotoxicity at 70.5 h is -7.73%.

Turning to `CC(C)OCCC(=O)NCC(O)c1c(Cl)cccc1Cl` (stereo unspecified), the cytotoxicity at 70.5 h was -3.94%.

`Cc1ccc(S(=O)(=O)N2CCOCC2C(N)=O)c(F)c1` (stereo unspecified): the cytotoxicity at 70.5 h is -8.93%.

For the compound `COc1cccc(-c2n[nH]cc2CNC2CCCN(C)C2)c1` (stereo unspecified), the cytotoxicity at 70.5 h was -5.83%.

Consider `CC(C)OCc1ccccc1CNC(=O)C(C)S(=O)(=O)C(C)C` (stereo unspecified), for which the cytotoxicity at 70.5 h was -5.26%.

For `COC(=O)c1ccc(NC(C)c2ccc3c(c2)NC(=O)CO3)nn1` (stereo unspecified), the cytotoxicity at 70.5 h is -1.28%.

Turning to `CC(C)c1noc(CCNC(=O)NCC2Cc3ccccc3O2)n1` (stereo unspecified), the cytotoxicity at 70.5 h is -13.5%.

Consider `CCOc1ccc(SCCS(=O)(=O)CC)cc1`, for which the cytotoxicity at 70.5 h was -6.32%.

Consider `COC(=O)c1ccc(Cl)c(NS(=O)(=O)c2cnn(C)c2)c1`, for which the cytotoxicity at 70.5 h came to 10.2%.

Turning to `Cc1[nH]ccc1C(=O)NCC1CC(=O)N(CCc2ccccc2)C1` (stereo unspecified), the cytotoxicity at 70.5 h was -3.09%.

In the case of `CC(C)N(C)S(=O)(=O)N(C)Cc1cnn(C)c1`, the cytotoxicity at 70.5 h was -3.87%.

For the compound `CN(C)c1cccc(C(=O)N2CCCC2c2ncc3c(n2)CCNC3)c1` (stereo unspecified), the cytotoxicity at 70.5 h was -2.08%.

As for `COc1ncc(C2(O)CCN(Cc3cccc(F)c3F)CC2)c(OC)n1`, the cytotoxicity at 70.5 h was -3.22%.

As for `Cc1nc(C)c(C(=O)N2CCc3nc4c(C)csc4c(=O)n3CC2)s1`, the cytotoxicity at 70.5 h stood at 0.911%.

As for `Cc1ccc(-c2ccc(C3CNCCO3)nc2)cc1` (stereo unspecified), the cytotoxicity at 70.5 h was -2.39%.

Regarding `CC(C)c1nn(C)c(N(C)C)c1CNC1CCc2cc(F)ccc21` (stereo unspecified), the cytotoxicity at 70.5 h turned out to be 5.83%.

`COc1cccc(-c2n[nH]cc2CNC2CCN(C3CC3)CC2)c1`: the cytotoxicity at 70.5 h was determined as 29.3%.

On to `Cc1cc(C[C@@H]2CCC[C@H]2NCc2ccccc2C)on1`, for which the cytotoxicity at 70.5 h was -1.32%.

For `Cc1cc(C[C@@H]2CCC[C@H]2NCc2ccc(C(F)(F)F)cc2)on1`, the cytotoxicity at 70.5 h was -2%.

Take `CC1(C)CC(N(Cc2cccnc2)Cc2cccnc2)CC(C)(C)N1`: the cytotoxicity at 70.5 h is -1.63%.
